For the experiment, the system named is MDA-MB-468 breast. Put plainly: NCI anticancer screen, dose series, 48 h.

Molecules are shown by their SMILES.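 How tested: cells in 96-well plates exposed to compound for 48 hours at five concentrations. GI50 marks 50% less growth. The concentration for full growth arrest is given as TGI.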

Among the data in PubChem BioAssay (NCI) are GI50 and TGI values, retold here.

With `O=C(CSc1ccc(Cl)cc1)Nc1ccc(-c2nc3ccccc3s2)c(Cl)c1`, the GI50 is 4520 nM and the TGI came to 48500 nM.

As for `OC(c1cc(-c2ccc(C(F)(F)F)cc2)nc(-c2ccc(C(F)(F)F)cc2)c1)C1CCCCN1` (stereo unspecified), the GI50 was 1470 nM and the TGI stood at 2820 nM.

Regarding `Fc1cc2[nH]ncc2c2c3c(c(-c4cn[nH]c4)nc12)CCCC3`, the GI50 was 857 nM and the TGI was 2580 nM.

`COc1cc(/C=C/C(=O)c2cc(OC)c(OC)c(OC)c2)ccc1OCc1ccccc1`: the GI50 was 2150 nM and the TGI amounted to 7980 nM.

Consider `O=C(/C=C/c1ccc(Cl)cc1)c1ccc(Nc2ccnc3cc(Cl)ccc23)cc1`, for which the GI50 was 43100 nM and the TGI was above 100000 nM.

Consider `Nc1ncnc2c1nnn2C1OC(CO)C(O)C1O` (stereo unspecified), for which the GI50 was 234 nM and the TGI came out at 1260 nM.

In the case of `CCN(CC)c1ccc(-c2cc(-c3cc(OC)c(OC)c(OC)c3)nc(N3CCOCC3)c2C#N)cc1`, the GI50 was 2580 nM and the TGI was above 100000 nM.

As for `O=C1OC(O)[C@@H]2[C@H]1[C@H]1CC[C@@H]2O1` (stereo partly specified), the GI50 was 85900 nM and the TGI is above 100000 nM.

`COc1cccc(-c2nc(-c3ccc(NC(=O)C(C)C)cc3)[nH]c2-c2ccnc(Br)c2)c1`: the GI50 was 1890 nM and the TGI worked out at 5400 nM.

`CC(C)[C@H]1COC(=O)N1[C@@H]1C(=O)N([C@@H](CCC(=O)N2CCN(C3CCCC3)CC2)C(=O)N[C@@H]2CCCc3ccccc32)[C@@H]1/C=C/c1cccc(Br)c1`: the GI50 was 688 nM and the TGI was 2120 nM.

`Cc1cc(/C=C/c2ccc3cc(N(C)C)ccc3[n+]2C)c(C)n1-c1ccccc1`: the GI50 is 48.6 nM and the TGI is 230 nM.

`CN(C(=O)c1ccc(C(F)(F)F)cc1)c1ccc(Oc2ccc3c(c2)cc(C(=O)N2CCN(Cc4ccc(OC(F)F)cc4)CC2)n3C)nc1`: the GI50 is below 10 nM and the TGI turned out to be 28600 nM.

Take `O=C1c2cc3c(cc2-c2c1c1ccc(F)cc1c(=O)n2CCCNCCO)OCO3`: the GI50 was 22.8 nM and the TGI amounted to 70.5 nM.

As for `Cc1cc(-c2ccc3nc(C4CCOCC4)n(CCOC(F)(F)F)c3c2)cn(C)c1=O`, the GI50 is 188 nM and the TGI was determined as 2250 nM.

For the compound `COc1ccc(-c2nnc(COc3ccc(NC(=O)Nc4cc(C(F)(F)F)cc(C(F)(F)F)c4)cc3F)o2)cc1`, the GI50 is 1550 nM and the TGI came to 5040 nM.

With `CCN1CCN(c2nc(C)cc(N(CCNc3ccnc4cc(Cl)ccc34)Cc3ccc4c(c3)OCO4)n2)CC1`, the GI50 was 1550 nM and the TGI is 3340 nM.

On to `CN1CCN(CCCn2c(=O)c3sc4ncccc4c3n3nnc(-c4ccccc4)c23)CC1`, for which the GI50 is 6840 nM and the TGI was determined as 13900 nM.

In the case of `COc1ccc(/C=C(/C#N)n2nnc3cccc(F)c32)cc1`, the GI50 was 414 nM and the TGI amounted to 5120 nM.

Take `C=C1NC(=O)C(C(C)CC)NC(=O)C2CSCC(NC(=O)CCC(=O)O)C(=O)NC(Cc3ccccc3)C(=O)NC(C)C(=O)NC(CC(C)CC)C(=O)NC(C(=O)NC(Cc3ccccc3)C(=O)N3CCCC3C(=O)N2)C(C)OC(=O)C(CO)NC(=O)C(C(O)COC)N(C)C(=O)C(C(C)C)NC(=O)C(CC(C)CC)NC1=O` (stereo unspecified): the GI50 is below 14 nM.

Turning to `O=c1c2sccc2n(CC2COc3ccccc3O2)c(=O)n1O` (stereo unspecified), the GI50 was 4610 nM and the TGI is 57400 nM.

As for `N#C/C(=N\Nc1ccc(F)cc1)C(=O)Nc1cc(-c2ccccc2)nn1-c1ccccc1`, the GI50 was 1460 nM and the TGI turned out to be 6010 nM.

For `COc1cc(/C=C/c2cc(O)c(C(C)=O)c(O)c2)cc2c1O[C@]1(C)CC[C@@H](O)C(C)(C)[C@H]1C2`, the GI50 was 4750 nM and the TGI is 31200 nM.

Turning to `OCc1ccc(-c2ccc(-c3ccc(CO)s3)o2)s1`, the TGI was 23 nM.

On to `CO[C@H]1/C=C(/C)CCC[C@H](C)[C@H](O)[C@@H](C)C(=O)C(C)(C)[C@@H](O)CC(=O)O[C@@H]1/C(C)=C/c1csc(C)n1`, for which the GI50 is below 10 nM and the TGI stood at 46.3 nM.
